The source of these data is ChEMBL document CHEMBL1123697, “Heteroatom-activated beta-lactam antibiotics: considerations of differences in the biological activity of [[3(S)-(acylamino)-2-oxo-1-azetidinyl]oxy]acetic acids (oxamazins) and the corresponding sulfur analogues (thiamazins)” (J Med Chem, 1987).

By half-life is commonly meant the time in which the quantity being followed falls by half. Lower therefore signals rapid decline.

The structures appear in SMILES notation.

Holding throughout (assay type): ADME
Holding throughout (details): buffer

Data set [1] is described as follows: Pseudo first order rate constant for the alkaline hydrolysis of beta-lactams (35 degree Celsius) was determined at pH 11.
A short description of data set [2]: Half life at pH 11.
Data set [3] in a line: Pseudo first order rate constant for the alkaline hydrolysis of beta-lactams (35 degree Celsius) was determined at pH 10.
A short description of data set [4]: Half life at pH 10.

`C[C@@H]1NC(=O)[C@H]1NC(=O)OCc1ccccc1` yielded a k in data set [1] of 0.029 h⁻¹. Also, the half-life in data set [2] is 24 h. `C[C@H]1[C@H](NC(=O)Cc2ccccc2)C(=O)N1OCC(=O)O` had a k in data set [3] of 0.31 h⁻¹. In data set [4], this compound showed a half-life of 2.2 h. As to `C[C@H]1[C@H](NC(=O)/C(=N\OC(C)(C)C(=O)O)c2csc(N)n2)C(=O)N1S(=O)(=O)O` [AZTREONAM], the k in data set [3] is 0.4 h⁻¹.

`C[C@H]1[C@H](NC(=O)Cc2ccccc2)C(=O)N1SCC(=O)[O-].[K+]` returned a k in data set [3] of 0.73 h⁻¹. In data set [4], this compound showed a half-life of 0.95 h.
